The target in one assay is T1, 5-LO (Homo sapiens, UniProt P09917).
T1 construct: incubating a test compound with heparinised human blood, prior to challenge with the calcium ionophore A23187; endogenous in cells; host or cells: human whole blood (heparinised), blood cells
T1 sequence (P09917 1-674): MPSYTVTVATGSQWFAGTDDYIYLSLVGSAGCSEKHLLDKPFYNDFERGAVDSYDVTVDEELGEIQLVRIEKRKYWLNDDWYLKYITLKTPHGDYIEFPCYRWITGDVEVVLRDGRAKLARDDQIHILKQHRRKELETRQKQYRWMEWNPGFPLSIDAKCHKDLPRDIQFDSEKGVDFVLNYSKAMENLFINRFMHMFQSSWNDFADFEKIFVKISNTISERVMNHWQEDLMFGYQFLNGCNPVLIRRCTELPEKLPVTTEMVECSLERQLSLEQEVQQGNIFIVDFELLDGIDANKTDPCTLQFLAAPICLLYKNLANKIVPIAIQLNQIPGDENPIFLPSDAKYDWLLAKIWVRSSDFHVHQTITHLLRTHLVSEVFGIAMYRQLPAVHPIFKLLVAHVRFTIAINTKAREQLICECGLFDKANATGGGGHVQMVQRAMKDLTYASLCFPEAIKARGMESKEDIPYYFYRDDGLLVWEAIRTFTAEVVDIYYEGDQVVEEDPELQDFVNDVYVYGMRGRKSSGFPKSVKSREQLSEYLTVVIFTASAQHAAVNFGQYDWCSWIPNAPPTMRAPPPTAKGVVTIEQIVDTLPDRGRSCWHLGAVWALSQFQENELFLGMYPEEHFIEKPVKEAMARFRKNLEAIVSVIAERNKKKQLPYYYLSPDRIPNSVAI
In words: Test b): heparinised human blood challenged with A23187, radioimmunoassay of LTB₄. As to conditions: heparinised human blood, calcium ionophore A23187 challenge; read-out: IC₅₀ against LTB₄ in test b). The class given is cell-based. On the procedure: (§1) As stated previously, the heterocyclic cyclic ethers of the formula I are inhibitors of the enzyme 5-LO. […] This test provides a measure of the intrinsic inhibitory properties against soluble 5-LO in an extracellular environment. • b) An in vitro assay system involving incubating a test compound with heparinised human blood, prior to challenge with the calcium ionophore A23187 and then indirectly measuring the inhibitory effects on 5-LO by assaying the amount of LTB₄ using the specific radioimmunoassay described by Carey and Forder (F. Carey and R.A. Forder, Brit. […] The effects of a test compound on the enzyme cyclooxygenase (which is involved in the alternative metabolic pathway for arachidonic acid and gives rise to prostaglandins, thromboxanes and related metabolites) may be measured at the same time using the specific radioimmunoassay for thromboxane B₂(TxB₂) described by Carey and Forder (see above). […] It permits the selectivity of the inhibitory effect on 5-LO or cyclooxygenase to be assessed. • c) An ex vivo assay system, which is a variation of test b) above, involving administration of a test compound (usually orally as the suspension produced when a solution of the test compound in dimethylsulphoxide is added to carboxymethylcellulose), blood collection, heparinisation, challenge with A23187 and radioimmunoassay of LTB₄ and TxB₂. […]

Another assay deals with T2, cyclooxygenase (Homo sapiens, UniProt P23219).
T2 construct: may be measured at the same time using the specific radioimmunoassay for thromboxane B₂(TxB₂); endogenous in cells; host or cells: human whole blood (heparinised), blood cells
In words: Test b): heparinised human blood challenged with A23187, radioimmunoassay of TxB₂. The assay is classed as cell-based. The following applies: heparinised human blood, calcium ionophore A23187 challenge; read-out: IC₅₀ against TxB₂ in test b). On the procedure: as §1

pIC50: −log10 of the molar value.

T2 sequence (P23219 24-599): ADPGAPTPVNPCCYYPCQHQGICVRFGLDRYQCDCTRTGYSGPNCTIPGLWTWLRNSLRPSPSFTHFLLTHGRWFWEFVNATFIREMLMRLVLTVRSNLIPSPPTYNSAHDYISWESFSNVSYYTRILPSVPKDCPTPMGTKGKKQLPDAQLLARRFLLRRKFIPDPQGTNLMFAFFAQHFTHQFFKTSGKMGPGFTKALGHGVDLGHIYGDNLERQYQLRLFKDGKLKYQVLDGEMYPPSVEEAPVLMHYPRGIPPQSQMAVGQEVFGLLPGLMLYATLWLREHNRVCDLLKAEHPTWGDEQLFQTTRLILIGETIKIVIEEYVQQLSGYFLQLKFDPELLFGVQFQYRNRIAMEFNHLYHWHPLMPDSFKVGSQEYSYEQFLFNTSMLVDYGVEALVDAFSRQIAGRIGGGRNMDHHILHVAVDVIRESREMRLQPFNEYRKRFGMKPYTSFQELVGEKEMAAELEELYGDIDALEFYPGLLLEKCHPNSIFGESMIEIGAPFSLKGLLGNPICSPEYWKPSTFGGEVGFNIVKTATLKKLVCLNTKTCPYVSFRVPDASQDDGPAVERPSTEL

Turning to `CCC1(c2cc(F)cc(OCc3ccc4c(ccc(=O)n4C)c3)c2)COC(C)(C)O1` (stereo not drawn) [4-ethyl-4-[5-fluoro-3-(1,2-dihydro-1-methyl-2-oxoquinolin-6-ylmethoxy)phenyl]-2,2-dimethyl-1,3-dioxolane], on 5-LO, the pIC50 was 7.10. Take `CCC1(c2cccc(OCC#Cc3ccccn3)c2)COC(C)(C)O1` (stereo not drawn) [2,2-dimethyl-4-ethyl-4-[3-(3-(2-pyridyl)prop-2-yn-1-yloxy)phenyl]-1,3-dioxolane]: the figures for the pIC50 on 5-LO and at cyclooxygenase were 6.10 and less than 4.40, respectively.
